Source: PubChem BioAssay AID248 (DTP/NCI, 2004)
“And” between values parts separate entries of the source, which are not always exact repeats. Identical values can stand only once. Inconclusive results and toxic doses are left out. Cut-off read from the data, not from the text of the source: active = T/C of 150% or more; inactive = T/C below 125%.

Test system: L1210 leukemia ip in BDF1 mice, survival T/C
Test: NCI In Vivo Anticancer Drug Screen. Data for tumor model L1210 Leukemia (intraperitoneal) in B6D2F1 (BDF1) mice
Conditions: endpoint: mean survival time, higher = longer survival
Method in brief: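 Transplanted-tumor mice were given test agent; controls received vehicle only. Survival readings from the two groups were divided (treated over control).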

[1] = dose: 50.0 mg/kg/injection, schedule: Q01DX009 (ip), vehicle: saline with Tween-80
[2] = dose: 100.0 mg/kg/injection, schedule: Q04DX003 (ip), vehicle: saline with Tween-80
[3] = dose: 200.0 mg/kg/injection, schedule: Q01DX009 (ip), vehicle: saline with Tween-80
[4] = dose: 200.0 mg/kg/injection, schedule: Q04DX003 (ip), vehicle: saline with Tween-80
[5] = dose: 400.0 mg/kg/injection, schedule: Q01DX009 (ip), vehicle: saline with Tween-80
[6] = dose: 400.0 mg/kg/injection, schedule: Q04DX003 (ip), vehicle: saline with Tween-80
[7] = dose: 100.0 mg/kg/injection, schedule: Q01DX001 (ip), vehicle: carboxymethylcellulose (CMC)
[8] = dose: 200.0 mg/kg/injection, schedule: Q01DX001 (ip), vehicle: carboxymethylcellulose (CMC)
[9] = dose: 100.0 mg/kg/injection, schedule: Q04DX002 (ip), vehicle: saline with Tween-80
[10] = dose: 200.0 mg/kg/injection, schedule: Q04DX002 (ip), vehicle: saline with Tween-80
[11] = dose: 400.0 mg/kg/injection, schedule: Q04DX002 (ip), vehicle: saline with Tween-80
[12] = dose: 100.0 mg/kg/injection, schedule: Q04DX003 (ip), vehicle: Klucel (hydroxypropylcellulose) (HPC)
[13] = dose: 200.0 mg/kg/injection, schedule: Q04DX003 (ip), vehicle: Klucel (hydroxypropylcellulose) (HPC)
[14] = dose: 100.0 mg/kg/injection, schedule: Q04DX002 (ip), vehicle: Klucel (hydroxypropylcellulose) (HPC)
[15] = dose: 200.0 mg/kg/injection, schedule: Q04DX002 (ip), vehicle: Klucel (hydroxypropylcellulose) (HPC)
[16] = dose: 400.0 mg/kg/injection, schedule: Q04DX002 (ip), vehicle: Klucel (hydroxypropylcellulose) (HPC)
[17] = dose: 100.0 mg/kg/injection, schedule: Q01DX009 (ip), vehicle: Klucel (hydroxypropylcellulose) (HPC)
[18] = dose: 100.0 mg/kg/injection, schedule: Q01DX009 (ip), vehicle: saline with Tween-80

Measured: T/C

O=[N+]([O-])c1cccc2c1CCCC2
inactive: dose: 12.5 mg/kg/injection, schedule: Q01DX009 (ip), vehicle: saline with Tween-80 98 % of control | dose: 25.0 mg/kg/injection, schedule: Q01DX009 (ip), vehicle: saline with Tween-80 93 % of control | [1] 98 % of control | [2] 107 % of control | [3] 87 % of control | [4] 105 % of control | [5] 105 % of control | [6] 96 % of control

CCc1ccc([N+](=O)[O-])cc1
inactive: [7] 95 % of control | [8] 103 % of control | dose: 400.0 mg/kg/injection, schedule: Q01DX001 (ip), vehicle: carboxymethylcellulose (CMC) 97 % of control

S=P1(Oc2ccccc2)Nc2ccccc2N1c1ccccc1 (stereo not given)
inactive: [9] 92 % of control | [10] 98 % of control | [11] 95 % of control

O=C(O)c1ccc[nH]1
inactive: [9] 102 % of control | [10] 87 % of control | [11] 98 % of control

CCCCCCC[n+]1ccc(C(=O)c2ccccc2)cc1
inactive: dose: 75.0 mg/kg/injection, schedule: Q01DX001 (ip), vehicle: carboxymethylcellulose (CMC) 96 % of control | dose: 300.0 mg/kg/injection, schedule: Q01DX001 (ip), vehicle: carboxymethylcellulose (CMC) 105 % of control

O=[As](O)(O)c1ccc(Cl)cc1C(F)(F)F
inactive: dose: 6.25 mg/kg/injection, schedule: Q04DX003 (ip), vehicle: Klucel (hydroxypropylcellulose) (HPC) 97 % of control | dose: 12.5 mg/kg/injection, schedule: Q04DX003 (ip), vehicle: Klucel (hydroxypropylcellulose) (HPC) 100 % of control | dose: 25.0 mg/kg/injection, schedule: Q04DX003 (ip), vehicle: Klucel (hydroxypropylcellulose) (HPC) 101 % of control and 103 % of control | [12] 101 % of control | [13] 103 % of control

CN(N=O)C(=O)NCc1c[nH]c(=O)[nH]c1=O
inactive: dose: 6.0 mg/kg/injection, schedule: Q01DX Z (ip), vehicle: carboxymethylcellulose (CMC) 106 % of control | dose: 12.0 mg/kg/injection, schedule: Q01DX Z (ip), vehicle: carboxymethylcellulose (CMC) 101 % of control | dose: 25.0 mg/kg/injection, schedule: Q01DX Z (ip), vehicle: carboxymethylcellulose (CMC) 100 % of control | dose: 50.0 mg/kg/injection, schedule: Q01DX Z (ip), vehicle: carboxymethylcellulose (CMC) 121 % of control

COc1ccc(OC)c2c(=O)cc[nH]c12
inactive: [7] 103 % of control | [8] 94 % of control

O=C1COc2ccc(F)cc2N1
inactive: [14] 98 % of control | [15] 102 % of control | [16] 109 % of control

Cc1ccc([N+](=O)[O-])cc1NC(=O)NCCc1ccccc1
inactive: [17] 97 % of control | dose: 200.0 mg/kg/injection, schedule: Q01DX009 (ip), vehicle: Klucel (hydroxypropylcellulose) (HPC) 87 % of control | dose: 400.0 mg/kg/injection, schedule: Q01DX009 (ip), vehicle: Klucel (hydroxypropylcellulose) (HPC) 92 % of control

O=C(O)C1=CC2CC1C1CC(C(=O)O)CC21 (stereo not given)
inactive: dose: 100.0 mg/kg/injection, schedule: Q01DX001 (ip), vehicle: Klucel (hydroxypropylcellulose) (HPC) 105 % of control | dose: 200.0 mg/kg/injection, schedule: Q01DX001 (ip), vehicle: Klucel (hydroxypropylcellulose) (HPC) 91 % of control | dose: 400.0 mg/kg/injection, schedule: Q01DX001 (ip), vehicle: Klucel (hydroxypropylcellulose) (HPC) 103 % of control

COc1cccc(NC(=S)C(C#N)C(=O)Nc2cccc(C(F)(F)F)c2)c1 (stereo not given)
inactive: dose: 25.0 mg/kg/injection, schedule: Q04DX002 (ip), vehicle: gum acacia 106 % of control | dose: 50.0 mg/kg/injection, schedule: Q04DX002 (ip), vehicle: gum acacia 109 % of control | dose: 100.0 mg/kg/injection, schedule: Q04DX002 (ip), vehicle: gum acacia 98 % of control and 88 % of control

O=C(COc1ccc(Cl)cc1Cl)Nc1ccccc1F
inactive: [1] 92 % of control | [18] 98 % of control and 87 % of control | [3] 89 % of control | [5] 95 % of control

Cc1ccc(S(=O)(=O)/C=C\S(=O)(=O)c2ccc(C)cc2)cc1
inactive: dose: 12.5 mg/kg/injection, schedule: Q01DX009 (ip), vehicle: saline 98 % of control | dose: 25.0 mg/kg/injection, schedule: Q01DX009 (ip), vehicle: saline 105 % of control | dose: 25.0 mg/kg/injection, schedule: Q04DX003 (ip), vehicle: acetone 92 % of control | dose: 50.0 mg/kg/injection, schedule: Q01DX009 (ip), vehicle: saline 86 % of control | dose: 50.0 mg/kg/injection, schedule: Q04DX003 (ip), vehicle: acetone 100 % of control | dose: 100.0 mg/kg/injection, schedule: Q01DX001 (ip), vehicle: acetone 90 % of control

c1ccc(C(=C2CC34CCCC23CC4)c2ccccc2)cc1 (stereo not given)
inactive: dose: 37.5 mg/kg/injection, schedule: Q04DX002 (ip), vehicle: saline with Tween-80 95 % of control | dose: 75.0 mg/kg/injection, schedule: Q04DX002 (ip), vehicle: saline with Tween-80 98 % of control | dose: 150.0 mg/kg/injection, schedule: Q04DX002 (ip), vehicle: saline with Tween-80 91 % of control | dose: 300.0 mg/kg/injection, schedule: Q04DX002 (ip), vehicle: saline with Tween-80 91 % of control

O=C1CC(c2ccccc2)=CN1c1ccc(Cl)cc1
inactive: [14] 89 % of control | [15] 104 % of control | [16] 112 % of control

CN(Cc1cccc(Cl)c1)C(=O)Nc1ccccc1
inactive: [14] 110 % of control | [15] 110 % of control | [16] 107 % of control

Cc1cccc(SC(=O)Nc2ccccc2C(F)(F)F)c1
inactive: dose: 25.0 mg/kg/injection, schedule: Q01DX009 (ip), vehicle: Klucel (hydroxypropylcellulose) (HPC) 103 % of control | dose: 50.0 mg/kg/injection, schedule: Q01DX009 (ip), vehicle: Klucel (hydroxypropylcellulose) (HPC) 94 % of control | [17] 97 % of control and 102 % of control | [12] 98 % of control | [13] 109 % of control | dose: 400.0 mg/kg/injection, schedule: Q04DX003 (ip), vehicle: Klucel (hydroxypropylcellulose) (HPC) 93 % of control

CC12CCC3c4ccc(OC(=O)Cc5ccc(N(CCCl)CCCl)cc5)cc4CCC3C1CCC2=O (stereo not given)
inactive: dose: 100.0 mg/kg/injection, schedule: Q01DX001 (sc), vehicle: steriod suspending solution 97 % of control | dose: 200.0 mg/kg/injection, schedule: Q01DX001 (sc), vehicle: steriod suspending solution 103 % of control | dose: 400.0 mg/kg/injection, schedule: Q01DX001 (sc), vehicle: steriod suspending solution 103 % of control

O=C(Nc1ccc2c(O)cc(S(=O)(=O)O)cc2c1)Nc1ccc2c(O)cc(S(=O)(=O)O)cc2c1
inactive: dose: 100.0 mg/kg/injection, schedule: Q04DX003 (ip), vehicle: saline 96 % of control | dose: 200.0 mg/kg/injection, schedule: Q04DX003 (ip), vehicle: saline 108 % of control | dose: 400.0 mg/kg/injection, schedule: Q04DX003 (ip), vehicle: saline 108 % of control

Clc1ccc(Cl)c(N=NNc2cc(Cl)ccc2Cl)c1
inactive: [18] 101 % of control | [2] 98 % of control | [3] 101 % of control | [4] 101 % of control | [5] 103 % of control | [6] 96 % of control
